From ChEMBL document CHEMBL5390256, “Sticklac-Derived Natural Compounds Inhibiting RNase H Activity of HIV-1 Reverse Transcriptase” (J Nat Prod, 2023) come the findings set out here.

In series [1] the target is T1, Human immunodeficiency virus type 1 reverse transcriptase (Human immunodeficiency virus 1, UniProt Q72547). As to the kind of experiment: Inhibition of HIV-1 RNase H activity.
Series [2] concerns the target Human immunodeficiency virus type 1 reverse transcriptase (Human immunodeficiency virus 1) (UniProt Q72547). As to the kind of experiment: Inhibition of HIV-1 RNase H using 5'-GAUCUGAGCCUGGGAGCU-3'-FAM RNA/BHQ-5'-AGCTCCCAGGCTCAGATC-3' DNA as substrate at 50 uM measured after 60 mins by FRET analysis.
For series [3], the target named is T1, Human immunodeficiency virus type 1 reverse transcriptase. As to the kind of experiment: Inhibition of HIV-1 RNase H using 5'-GAUCUGAGCCUGGGAGCU-3'-FAM RNA/BHQ-5'-AGCTCCCAGGCTCAGATC-3' DNA as substrate measured after 60 mins by FRET analysis.
A short description of series [4]: Cytotoxicity activity against human R5-MaRBLE reporter cells assessed as effect on Renilla luciferase activity measured after 7 days by Dual-Glo luciferase reporter assay. The class given is toxicity, cell-based. As to conditions: time 7 day.
For series [5], the system named is Human immunodeficiency virus 1. As to the kind of experiment: Antiviral activity against HIV-1 NL4-3 infected in human R5-MaRBLE reporter cells assessed as inhibition of viral replication measured after 7 days by Dual-Glo luciferase reporter assay. It is filed as functional, organism-based. For orientation: Reporter assays use an easily measured gene product as a stand-in for the process of interest.

The target in series [6] is DNA (cytosine-5)-methyltransferase 1 (Homo sapiens, UniProt P26358). In words: Competitive inhibition of DNMT1 (unknown origin).

pEC50, pIC50, pKi: −log10 of the molar value. Activity calls are given as the source filed them. The calls are words filed in the database; no cut-off is given here.

Sequence of DNA (cytosine-5)-methyltransferase 1 (P26358 whole entry): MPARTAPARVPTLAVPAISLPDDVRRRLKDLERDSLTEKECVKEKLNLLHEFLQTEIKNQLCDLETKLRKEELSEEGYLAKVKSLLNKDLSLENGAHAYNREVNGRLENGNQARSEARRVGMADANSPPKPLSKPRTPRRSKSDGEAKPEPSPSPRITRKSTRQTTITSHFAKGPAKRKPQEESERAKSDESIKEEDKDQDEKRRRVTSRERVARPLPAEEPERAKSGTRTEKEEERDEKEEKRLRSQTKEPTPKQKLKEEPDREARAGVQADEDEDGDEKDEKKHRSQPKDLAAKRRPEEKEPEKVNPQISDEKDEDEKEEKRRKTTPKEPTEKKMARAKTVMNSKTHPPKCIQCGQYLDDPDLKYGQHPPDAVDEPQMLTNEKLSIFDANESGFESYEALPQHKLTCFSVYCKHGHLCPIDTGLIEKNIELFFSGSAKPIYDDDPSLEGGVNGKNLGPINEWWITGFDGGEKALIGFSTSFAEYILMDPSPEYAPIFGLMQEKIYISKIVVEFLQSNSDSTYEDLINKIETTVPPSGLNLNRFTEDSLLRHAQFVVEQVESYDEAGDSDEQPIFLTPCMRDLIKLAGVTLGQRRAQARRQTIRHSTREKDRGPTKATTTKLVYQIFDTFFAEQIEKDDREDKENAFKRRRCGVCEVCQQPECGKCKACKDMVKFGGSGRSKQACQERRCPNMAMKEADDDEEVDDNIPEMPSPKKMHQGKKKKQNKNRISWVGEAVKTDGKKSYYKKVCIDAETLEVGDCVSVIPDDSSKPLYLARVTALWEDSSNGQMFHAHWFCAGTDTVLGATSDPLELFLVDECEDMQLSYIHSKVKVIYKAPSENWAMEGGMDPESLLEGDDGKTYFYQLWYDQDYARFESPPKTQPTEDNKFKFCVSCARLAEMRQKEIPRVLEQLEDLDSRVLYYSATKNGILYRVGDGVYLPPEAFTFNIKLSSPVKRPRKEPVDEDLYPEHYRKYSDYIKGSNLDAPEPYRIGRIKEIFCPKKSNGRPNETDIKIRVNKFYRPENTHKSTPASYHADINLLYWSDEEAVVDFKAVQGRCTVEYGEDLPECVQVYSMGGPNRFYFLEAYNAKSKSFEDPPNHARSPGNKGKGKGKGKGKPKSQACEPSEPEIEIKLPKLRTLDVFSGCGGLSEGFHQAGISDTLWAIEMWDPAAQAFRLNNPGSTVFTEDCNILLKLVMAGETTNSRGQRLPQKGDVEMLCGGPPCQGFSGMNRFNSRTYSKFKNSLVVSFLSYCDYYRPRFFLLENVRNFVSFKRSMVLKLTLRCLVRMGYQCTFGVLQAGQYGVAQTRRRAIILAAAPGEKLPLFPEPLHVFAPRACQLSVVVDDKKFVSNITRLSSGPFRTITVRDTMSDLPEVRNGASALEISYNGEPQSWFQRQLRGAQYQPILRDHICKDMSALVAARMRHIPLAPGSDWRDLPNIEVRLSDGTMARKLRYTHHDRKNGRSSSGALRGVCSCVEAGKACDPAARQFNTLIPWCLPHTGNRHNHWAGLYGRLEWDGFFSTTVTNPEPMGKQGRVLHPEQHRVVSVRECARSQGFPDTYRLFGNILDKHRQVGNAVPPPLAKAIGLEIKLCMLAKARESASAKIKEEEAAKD

For `O=C(O)c1cc(O)c2c(c1)[C@@H]([C@H]1c3cc(C(=O)O)cc(O)c3C(=O)c3c(O[C@H]4O[C@@H](CO)[C@H](O)[C@@H](O)[C@@H]4O)cccc31)c1cccc(O[C@@H]3O[C@H](CO)[C@@H](O)[C@H](O)[C@H]3O)c1C2=O`, in series [1], the pIC50 (in general, −log10 of the IC50, conventionally taken in molar units) was 5.70.

With `NCCc1ccc(O)c(-c2c(O)c(O)c3c(c2O)C(=O)c2c(cc(O)c(C(=O)O)c2C(=O)O)C3=O)c1`, the inhibition result in series [2] is “Active”. Besides, in series [3], the pIC50 was 4.36.

For `O=C(O)c1cc(O)c2c(c1)[C@@H]([C@@H]1c3cc(C(=O)O)cc(O)c3C(=O)c3c(O[C@@H]4O[C@H](CO)[C@@H](O)[C@H](O)[C@H]4O)cccc31)c1cccc(O[C@H]3O[C@@H](CO)[C@H](O)[C@@H](O)[C@@H]3O)c1C2=O`, in series [1], the pIC50 is 5.70.

`N[C@@H](Cc1ccc(O)c(-c2c(O)c(O)c3c(c2O)C(=O)c2c(cc(O)c(C(=O)O)c2C(=O)O)C3=O)c1)C(=O)O`: in series [4], the CC50 (commonly the concentration at which the toxic effect on the cells reaches its halfway point) at 168 h was found to be 43.9 µM. Besides, the inhibition entry in series [2] was “Active”. In series [5] (Human immunodeficiency virus 1, NL4-3, R5-MaRBLE, 168 h, read-out: EC50), the pEC50 (usually the EC50 on a negative log10 scale, so that one unit is a factor of ten) is 4.72. For the same molecule, the pIC50 in series [3] was 5.09.

`CC(=O)NCCc1ccc(O)c(-c2c(O)c(O)c3c(c2O)C(=O)c2c(cc(O)c(C(=O)O)c2C(=O)O)C3=O)c1` [LACCACID ACID A]: the CC50 at 168 h in series [4] came to 39.5 µM. Moreover, the pKi (usually the negative decadic logarithm of the Ki, by convention in mol/L) in series [6] was 6.52. The inhibition result in series [2] was “Active”. In series [5] (r5-marble), the EC50 result is on record as “Not Active”. In series [3], this molecule had a pIC50 of 4.19.
